Test results as given in patent publication US8680113B2, “BMI-1 protein expression modulators” (PTC Therapeutics, Inc., priority 2008, dated 2014).

Assays:
[1] = tested on: HT1080 cells (human fibrosarcoma cells); assay type: in vivo, nude mice
Description: (§1) HT1080 cells (human fibrosarcoma cells) were implanted subcutaneously in nude mice. After seven days, mice were administered compounds subcutaneously at 30 or 60 mg/kg/day for ten days. The tumors were then excised from mice and homogenized in Tris-HCl buffer containing a cocktail of proteinase inhibitors. Intratumor Bmi-1 levels were subsequently measured using the Bmi-1 ELISA assay of Example 1. Protein concentrations of the homogenates were measured with a Bio-Rad Protein assay kit and intratumor Bmi-1 levels were normalized to the protein concentrations. Treatment with the compound for ten days inhibited tumor growth by 35% as compared to the vehicle-treated control groups. […] Since p27 expression is not regulated by Bmi-1 activity, no changes in the levels of this protein were observed within treated tumors.

Bmi-1 [2] = assay: In-Vivo Xenograft Model: intratumor Bmi-1 levels by Bmi-1 ELISA; design: species or system nude mice; conditions: subcutaneously at 30 or 60 mg/kg/day for ten days, compared to the vehicle control (p<0.002)
Description: as §1

Bmi-1 [3] = assay: Cell Model Assay: Bmi-1 expression in K562; assay type: cell-based; conditions: K562 (chronic myelogenous leukemia)
Description: Using assay conditions known to those skilled in the art, the ability of the compounds described herein to reduce Bmi-1 expression in HT1080 (fibrosarcoma), U87-MG (glioblastoma), T98G (glioblastoma), K562 (chronic myelogenous leukemia) and KG1 (acute myelogenous leukemia) cell lines was tested (at test compound concentrations calculated from the ELISA assay data shown in Example 1) compared to puromycin as a control to provide the EC50 values shown in Table 2. The term “ND” means that data was not determined.

Bmi-1 [4] = assay: Western Blot Analysis: Bmi-1 levels in MCL cell lines; assay type: cell-based; conditions: MCL cells cultured for 72 hrs, FIG. 2
Description: (§2) Western Blot analysis was used to determine cytoplasmic protein levels of Bmi-1 and activation of key executioner proteins (Caspases 3, 7, 8, 9) involved in apoptosis. Protein levels were measured in Bmi-1 inhibitor-treated mantle cell lymphoma cell lines. […] Cells were harvested at each time point, washed with ice-cold PBS, and lysed with 1× lysis buffer (20 mM Tris-HCl (pH 7.5), 150 mM NaCl, 1 mM Na2EDTA, 1 mM EGTA, 1% Triton, 2.5 mM sodium pyrophosphate, 1 mM beta-glycerophosphate, 1 mM Na3VO4, 1 μg/ml leupeptin; Cell Signaling Technology; Danvers, Mass.). Protein concentrations were determined using Pierce BCA protein assay (Thermo Scientific; Rockford, Ill.). Electrophoresis of cell lysates (25 μg) were performed with Mini Protean Systems by Bio-Rad Laboratories and run in Bio-Rad Readymade Pre-Cast Gels (4-20% Tris-HCl gels). Proteins were transferred onto PVDF membrane (Bio-Rad), and immunoblotted with anti-Bmi-1-clone F6 antibody (Millipore; Temecula, Calif.) and Caspases 3, 7, 8 and 9 (Cell Signaling Technology; Danvers, Mass.).

[5] = tested on: Caspases 3, 7, 8, 9 and PARP; assay: Western Blot Analysis: activation of apoptosis proteins in MCL cell lines; assay type: cell-based; conditions: MCL cells cultured for 72 hrs, FIG. 2
Description: as §2

[6] = tested on: Jeko, Mino and Rec1 MCL-cell lines; assay: Cell Cycle Analysis (propidium iodide flow cytometry); assay type: cell-based; conditions: MCL cells, 60 nM, FIG. 3
Description: Cell cycle analysis was performed for MCL-cell lines treated with Bmi-1 inhibitor Compounds 1 (data not shown), 14 and 49 (data not shown). For example, Jeko, Mino and Red cells treated with BMI-1 inhibitor Compound 14 at concentrations of 60 nM, 75 nM, and 60 nM, respectively were cultured in T-25 flasks for 24, 48 and 72 hours in 37° C. About 1×10^6 cells were harvested, washed with PBS, fixed with ice-cold 70% ethanol, and treated with 1 mg/ml RNase A (Invitrogen; Carlsbad, Calif.). Cells were then stained with 5 μL 1 mg/mL Propidium Iodide (Sigma-Aldrich; St. Louis, Mo.), incubated in ice for at least 1 hr, and the cell cycle profile was determined using flow cytometry analysis. The same protocol was followed for cell cycle analysis of Jeko, Mino, and Rec1 cell lines treated with Compounds 1 (data not shown) and 49 (data not shown).

Row | Structure (SMILES) | toxicity within treated mice ([1]; over the 10 day experiment) | inhibited tumor growth ([1]; subcutaneously at 30 or 60 mg/kg/day for ten days, compared to vehicle-treated control groups) [%] | reduced intratumor Bmi-1 protein levels (Bmi-1 [2]) [%] | EC50 (Bmi-1 [3]) [nM] | Bmi-1 levels (Bmi-1 [4]) | activation of Caspase-9 and PARP [5] | DNA content ([6]; at 48 and 72 hrs) | cell cycle profile ([6]; at 24 hrs)
1 | COc1cc(Br)c(Nc2nc(-c3c(C)nc4ncccn34)cs2)c(Br)c1 [Cpd 1, N-(2,6-dibromo-4-methoxyphenyl)-4-(2-methylimidazo[1,2-a]pyrimidin-3-yl)thiazol-2-amine] | no toxicity was observed | 35 | 67 | 374 |  |  |  | 
2 | COc1ccc(Nc2nc(-c3c(C)nc4ncccn34)cs2)cc1 [Cpd 14, N-(4-methoxyphenyl)-4-(2-methylimidazo[1,2-a]pyrimidin-3-yl)thiazol-2-amine] |  |  |  |  | time dependant decrease | activation of Caspase-9 and PARP | increase in DNA content | G2/M block
